This passage reports solubility results from patent publication US20110086848A1, “Agrochemical Compositions Comprising Alkyl Polypropylene Glycol Polyethylene Glycol” (Bayer CropScience AG, priority 2009, published 2011).

This data set can be described thus: physchem. The data set is classed as physicochemical. As for the experimental part:
In the context of the present invention, the term “water-soluble agrochemically active compound” is generally understood as meaning an insecticidally and/or acaricidally active compound (i.e. an active compound that controls insects and/or Acarina) which has (at 20° C.) a solubility of ≧10 mg/l in water. Compounds A and B meet this requirement.

Read-outs that look alike come from different tables or passages of the source. A value given as a limit tells only on which side of the number the result lay.

A word on the solubility: it is the concentration that dissolves in the medium under given conditions. Take `C/C(=N\C#N)N(Cc1ccc(Cl)nc1)CC(F)F` [Compound A]: for the setting “at 20° C., stated as meeting the definition of water-soluble, read-out: solubility in water”, the solubility was at least 10 µg/mL.
As for `O=C1C=C(N(Cc2ccc(Cl)nc2)CC(F)F)CO1` [Compound B], the solubility (20 °C, water) was at least 10 µg/mL.
